Data reported in US6663862B1, “Reagents for detection and purification of antibody fragments” (Duke University, priority 1999, dated 2003).
Where a chain is given by its changes, count along the chain named. Marks after values point to notes of the source that are not given here.

Tested on: Fc fragment of human IgG
Assay: Binding of B1 mutants to human IgG Fc fragment (acrylodan fluorescence titration; competition assay for weak binders)
Conditions: for DDG = −RTIn (Kd wild type/Kd mutant): T = 298K, relative to Q32C wild-type construct; for Kd: hFc, Q32C background, 20 mM KPO4 (pH 6.0), 25° C., direct titration, or competition with labeled wild-type B1-hFc complex for weak binders; for fold increase in Kd: hFc binding, relative to wild-type (Q32C) B1
Description: Fluorophore coupling and iodoacetamide blocking. All of the above mutations were constructed into the Q32C background to allow site-specific covalent coupling with acrylodan for fluorescent binding assays as described by Sloan, D. J. and Hellinca, H. W. (1998) Prot. Eng. 11:819-823. In competitive binding experiments between fluorescently labeled wild-type B1 and unlabeled mutants, the free thiol in the mutant protein was blocked by reaction with iodoacetamide.
Binding of B1 mutants to human IgG Fc fragment. The binding constants for each of the alanine mutants were measured as an increase in fluorescence by direct titration of Fc fragment of human IgG (ICN Biomedicals, Costa Mesa, Calif.) into a solution containing 250nM acrylodan-conjugated B1 domain mutant in 20 mM KPO4 (pH 6.0) at 25° C. (excitation 392 nm; emission 500 nm; slit widths of 4 and 16 nm respectively). After each addition of protein, the solution was allowed to equilibrate for 30 seconds before the final fluorescence value was recorded.
Each titration comprised 20 points and was performed in triplicate. The data were fit to a binding isotherm that described a single binding site and takes into account all of the species present (Segel, I. H. (1975) Enzyme Kinetics, John Wiley & Sons, New York, N.Y.): [formula]
where F is the measured fluorescence with FO and Fmax representing the initial and final values, respectively. [B1]t and [hFc]t are the concentrations of B1 and hFc respectively, and the Kd is the disassociation constant. This equation is referred to herein as “Equation 1”.
The binding constants of weak binders (greater than 50-fold increases in Kd) were measured in a competition assay with a pre-formed complex (250 nM) of wild type Q32C construct conjugated to acrylodan and hFc. Binding constants were determined by measuring the decrease in fluorescence of the complex by the addition of iodoacetamide blocked mutant B1 domains. From these competition binding curves the Kd for each of the mutant B1 domains was calculated from the binding isotherm (Fierke, C. A. et al. (1991) Biochemistry 30:11054-11063): [formula]
where F is the measured fluorescence with Fo and Ff representing the initial and final values respectively. [B1wt] and [B1mut] are the concentrations of B1 wild type and mutant respectively, and the Kd is the disassociation constant of the mutant or wild type. This Equation is referred to herein as “Equation 2”.
Binding studies. The interaction of the mutant B1 domain with the hFc was measured using a fluorescence method described by Sloan, D. J. and Hellinga, H. W. (1998) Prot. Eng. 11:819-823, which relies on the attachment of an environmentally sensitive fluorophore placed at the rim of the binding site in a location such that its fluorescence changes upon formation of the complex by virtue of alterations in conformational degrees of freedom and solvent accessibility, without adversely affecting the binding constant. Binding constants for hFc were determined in a direct titration experiment in which purified hFc was added to a solution of a Q32C B1 mutant to which the fluorophore acrylodan was covalently coupled at position 32C (FIG. 2A). The binding constants for all the B1 mutants were determined in the Q32C background (Table 4).
This approach was used to avoid having to use large quantities of pure hFc.

| Substance | DDG = −RTIn (Kd wild type/Kd mutant) | Kd [µM] | fold increase in Kd [fold] |
| --- | --- | --- | --- |
| 8: B1 domain of protein G, E42A mutant in Q32C background [Example 8] | 0.4 kcal/mol | 0.46 | – |
| 3: B1 domain of protein G, E27A mutant in Q32C background [Example 3] | >4.9^f kcal/mole | > 1000 | > 4000 |
| 4: B1 domain of protein G, K28A mutant in Q32C background [Example 4] | 1.3 kcal/mol | 2 | – |
| 1: B1 domain of protein G with Q32C mutation and His tag; the wild-type construct relative to which all measurements are made [Example 1, reference compound] | 0 kcal/mol | 0.24 | – |
| 6: B1 domain of protein G, N35A mutant in Q32C background [Example 6] | 2.4 kcal/mol | 13 | 50 |
| 7: B1 domain of protein G, D40A mutant in Q32C background [Example 7] | 0.3 kcal/mol | 0.38 | – |
| 5: B1 domain of protein G, K31A mutant in Q32C background [Example 5] | 3.5 kcal/mol | 85 | 350 |
| 10: B1 domain of protein G, T44/Y45A mutant in Q32C background [Example 10] | 2.0 kcal/mol | 6.5 | – |
| 2: B1 domain of protein G, T25A mutant in Q32C background [Example 2] | 0.24 kcal/mol | 0.36 | – |
| 9: B1 domain of protein G, W43A mutant in Q32C background [Example 9] | 3.8 kcal/mol | 140 | 580 |
